Reference: patent US20240226318A1, “ANTIBODY DRUG CONJUGATE TARGETING NECTIN 4 AND PREPARATION METHOD THEREFOR AND USE THEREOF” (JIANGSU MABWELL HEALTH PHARMACEUTICAL R&D CO., LTD., priority 2021, published 2024)

Tests used:
[1] = target: T1, recombinant extra-cellular domain of human Nectin-4 protein (Homo sapiens, UniProt Q96NY8); assay: BIAcore affinity for the antigen; type: binding; conditions: human Nectin-4, pH 7.4
T1 construct: recombinant extra-cellular domain of human Nectin-4 protein; purchased Novoprotein Scientific Inc
T1 sequence (Q96NY8 32-349 limits assumed): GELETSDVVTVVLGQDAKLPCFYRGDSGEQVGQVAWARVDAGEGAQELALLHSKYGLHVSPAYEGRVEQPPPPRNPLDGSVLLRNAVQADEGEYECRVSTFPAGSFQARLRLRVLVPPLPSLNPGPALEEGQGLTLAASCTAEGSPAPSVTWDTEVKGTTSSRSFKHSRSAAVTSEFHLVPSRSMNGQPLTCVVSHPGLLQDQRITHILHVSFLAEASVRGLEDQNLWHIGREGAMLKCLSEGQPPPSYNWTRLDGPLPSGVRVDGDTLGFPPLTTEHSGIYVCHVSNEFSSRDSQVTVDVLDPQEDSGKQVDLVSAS
Experimental: Human Nectin-4 protein (purchased from Novoprotein Scientific Inc.) was subjected to buffer exchange with a desalting column using running reagent 1 (10 mM N-(2-hydroxyethyl)piperazine-N-2 sulfonic acid, 150 mM sodium chloride, 3 mM ethylene diamine tetraacetic acid, 0.005% Tween-20, with pH adjusted to 7.4). Samples to be detected were diluted to 5 μg/mL with the running reagent 1, and sequentially injected to the experimental channels with His capture chips at a flow rate of […] for about 400 RU. The capture of the ligand was not required for the reference channel. The human Nectin-4 protein was diluted to 50, 25, 12.5, 6.25, 3.125, 1.563, 0.781, 0.391, and 0 nM with the corresponding running reagent, and then the diluted human Nectin-4 protein was injected into the experimental channels and the reference channel at a flow rate of 30 μL/min. The association and dissociation time were 120 sec and 300 sec, respectively. The Biocore 8K analysis software was used to calculate KD values for each antibody. The reference channel was used for background subtraction.

PC-3-Nectin4(2-4) cells = assay: Internalization activity, flow cytometry; type: cell-based
Experimental: Experiment method was as follows: the target cells at the logarithmic stage of growth were harvested by centrifugation, adjusted to a density of 5×10^5 cells/mL in complete medium (F-12K medium containing 10% FBS and 250 μg/ml G418). 1 mL of the cell suspension obtained was pipetted into EP tubes, i.e., 5×10^5 cells in each, which were then centrifuged. The supernatant was discarded and the cells were washed twice with PBS. […] (as the control group) and 37° C. (as the experiment groups) respectively. After incubation for 2 h, a fluorescently labeled secondary antibody, goat anti human IgG Fc-FITC (purchased from Sigma) was added and incubated for 1 h at 4° C. After the incubation, the fluorescence intensity was measured with a flow cytometer, and the internalization efficiency of each of the samples was calculated by the formula as follows: percent internalization at the time point tx=(1−the fluorescence intensity of the sample at 37° C./the fluorescence intensity of the sample at 4° C.)×100% (tx is the incubation time period x of the sample with the cells).

human FcγR I (CD64) [2] = target: T2, human FcγR I (CD64) (Homo sapiens, UniProt P12314); assay: BIAcore affinity for Fc receptor FcγRI; type: binding; conditions: pH 7.4
Experimental: (§1) Human FcγR I (CD64), FcγR IIa (CD32a (H167)), FcγR IIb (CD32b), and FcγR IIIa (CD16a (V176)) proteins were diluted to 0.25 μg/mL with running reagent 1 (10 mM N-(2-hydroxyethyl)piperazine-N-2 sulfonic acid, 150 mM sodium chloride, 3 mM ethylene diamine tetraacetic acid, 0.005% Tween-20, with pH adjusted to 7.4), and FcRn protein was diluted to 0.25 μg/mL with running reagent 2 (2 mM sodium dihydrogen phosphate, 10 mM disodium hydrogen phosphate, 137 mM sodium chloride, 2.7 mM potassium chloride, 0.05% tween-20, with pH adjusted to 6.0) and all the diluted proteins were sequentially injected to the experimental channels with His capture chips (FC2) at a flow rate of […] for about 40 RU. The capture of the ligands was not required for the reference channel (FC1). Samples to be detected were diluted with corresponding running reagents, and then were injected into the experimental channels and the reference channel at a flow rate of 30 μL/min. Association and dissociation was monitored for certain time periods. The Biocore 8K analysis software was used to calculate KD values for each antibody. The reference channel (FC1) was used for background subtraction.

[3] = target: T3, human FcγR IIa (human CD32a (H167)) (Homo sapiens, UniProt P12318); assay: BIAcore affinity for Fc receptor FcγRIIa; type: binding; conditions: pH 7.4
T3 sequence (P12318 36-218 limits assumed): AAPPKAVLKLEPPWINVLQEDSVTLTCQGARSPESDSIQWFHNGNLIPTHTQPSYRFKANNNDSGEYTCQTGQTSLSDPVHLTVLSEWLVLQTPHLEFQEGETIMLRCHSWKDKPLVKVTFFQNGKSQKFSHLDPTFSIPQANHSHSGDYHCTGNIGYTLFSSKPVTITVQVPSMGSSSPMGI
Experimental: as §1

T24/nectin-4 cells = assay: In vivo efficacy, bladder cancer animal model T24/nectin-4; set-up: species or system Nude mice (BALB/cJGpt-Foxn1nu/Gpt); conditions: T24/nectin-4 model; for Average weight (g) at the beginning / Average weight (g) at the end: mouse body weight
Description: (§2) MIDA-MB-468 cells, i.e. human breast carcinoma cells (purchased from ATCC), NCI-H322 cells, i.e. lung cancer cells (purchased from ATCC), and T24/nectin-4, i.e. bladder cancer cells (available from the cell bank of the Chinese Academy of Science) were utilized respectively to inoculate Nude mice (BALB/cJGpt-Foxn1nu/Gpt, 4-5 weeks old) for establishing mouse models.
(§3) The antibody-drug conjugate 3d and the control drug PADCVE (Enfortumab Vedotin, purchased from Seattle Gentics) were grouped and studied (as shown in Table 9 below). The mice were intravenously injected (IV) in a volume of 10 mL/kg, respectively; and the mice of the vehicle group were intravenously injected the same volume of vehicle (physiological saline). Tumor volumes were measured 2 times per week, and the mice were weighed and the data was recorded.
(§4) When the experiment was finished, the experimental endpoint was reached, or if the tumor volume reached 1500 mm^3, the animals were sacrificed under CO2 anesthesia and the tumors were dissected and photographed.
(§5) The method for evaluating in vivo efficacy was the same as described in Section 3.3 in the Group 3 of Examples.
A mouse model was established using T24/nectin-4 cells and ADCs 3d and PADCVE were grouped and studied, as described in sections 4.1 and 4.2 in the present Group 4 of Examples.

[4] = target: T4, human FcγR IIb (human CD32b) (Homo sapiens, UniProt P31994); assay: BIAcore affinity for Fc receptor FcγRIIb; type: binding; conditions: pH 7.4
T4 sequence (P31994 43-310): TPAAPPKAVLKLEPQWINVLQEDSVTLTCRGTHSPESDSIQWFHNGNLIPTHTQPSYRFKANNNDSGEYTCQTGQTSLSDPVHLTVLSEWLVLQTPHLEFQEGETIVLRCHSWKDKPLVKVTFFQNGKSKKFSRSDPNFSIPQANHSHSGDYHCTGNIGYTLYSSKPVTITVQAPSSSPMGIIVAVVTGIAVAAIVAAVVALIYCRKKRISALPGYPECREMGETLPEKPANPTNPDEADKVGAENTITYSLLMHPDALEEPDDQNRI
Experimental: as §1

[5] = cited from earlier work
MDA-MB-468 cells = assay: In vivo efficacy, breast cancer animal model MDA-MB-468 (Group 4 Example 1); set-up: species or system Nude mice (BALB/cJGpt-Foxn1nu/Gpt); conditions: MDA-MB-468 model; for TV(D0): D0 baseline; for PR (D21), partial tumor regression: 8 animals per group
Description: as §2, §3, §4, §5
A mouse model was established using MDA-MB-468 cells and ADCs 3d and PADCVE were grouped and studied, as described in sections 4.1 and 4.2 in the present Group 4 of Examples.

NCI-H322 cells = assay: In vivo efficacy, lung cancer animal model NCI-H322; set-up: species or system Nude mice (BALB/cJGpt-Foxn1nu/Gpt)
Description: as §2, §3, §4, §5
A mouse model was established using NCI-H322 cells and ADCs 3d and PADCVE were grouped and studied, as described in sections 4.1 and 4.2 in the present Group 4 of Examples.

FcRn [6] = target: T5, FcRn (Homo sapiens, UniProt P55899); assay: BIAcore affinity for Fc receptor FcRn; type: binding; conditions: pH 6.0
Experimental: as §1

[7] = target: Nectin-4 on stably transfected PC-3-Nectin4(2-4) cells (UniProt Q96NY8); assay: flow cytometry on PC-3-Nectin4(2-4) cells, 2 h at 4° C., anti-human IgG Fc-FITC
FcRn [8] = target: T5, FcRn; assay: BIAcore (SPR), FcRn captured on His capture chip, pH 6.0, ADC injected
[9] = target: Nectin-4 on stably transfected PC-3-Nectin4(2-4) cells (UniProt Q96NY8); assay: cell-based or functional assay
human FcγR I (CD64) [10] = target: T2, human FcγR I (CD64); assay: BIAcore (SPR), Fc receptor captured on His capture chip, pH 7.4, ADC injected
[11] = target: human FcγR IIb (human CD32b) (human) (UniProt P31994); assay: as above
[12] = target: human FcγR IIa (human CD32a (H167)) (human) (UniProt P12318); assay: as above
[13] = target: recombinant extra-cellular domain of human Nectin-4 protein (human) (UniProt Q96NY8); assay: BIAcore (SPR), ADC captured on chip, human Nectin-4 protein injected at 0.391-50 nM

For PADCEV, the Kd [1] was 4.87 nM, the ka [1] was 1.05e+06 M⁻¹ s⁻¹ and the kd [1] was 0.00512 s⁻¹. For the same substance, the “Average fluorescence intensity 4° C.” value (PC-3-Nectin4(2-4) cells; 2 h at 4° C. (control group), average) was 83966, the “Median fluorescence intensity 4° C.” value (PC-3-Nectin4(2-4) cells; 2 h at 4° C. (control group), median) was 78925 and the “Average fluorescence intensity 37° C.” value (PC-3-Nectin4(2-4) cells; 2 h at 37° C., average) was 33129. The “Median fluorescence intensity 37° C.” value (PC-3-Nectin4(2-4) cells; 2 h at 37° C., median) was 25038, the Kd (human FcγR I (CD64) [2]) was 12.3 nM and the Kd [3] was 2770 nM. For the same substance, the “Average tumor weight (g) (D22)” value (T24/nectin-4 cells; 3 mg/kg IV at D0) was 0.23 g, the “TGI (%) (D22)” value (T24/nectin-4 cells; 3 mg/kg IV at D0) was 90.7% and the “Average weight (g) at the beginning” value (T24/nectin-4 cells; 3 mg/kg IV at D0) was 22.0 g. The “Average weight (g) at the end” value (T24/nectin-4 cells; 3 mg/kg IV at D0) was 23.0 g, the “Average tumor weight (g) (D22)” value (T24/nectin-4 cells; 10 mg/kg IV at D0) was 0.09 g and the “TGI (%) (D22)” value (T24/nectin-4 cells; 10 mg/kg IV at D0) was 96.3%. The “Average weight (g) at the beginning” value (T24/nectin-4 cells; 10 mg/kg IV at D0) was 22.0 g, the “Average weight (g) at the end” value (T24/nectin-4 cells; 10 mg/kg IV at D0) was 23.3 g and the Kd [4] was 16300 nM. The “adverse reactions accompanying treatment” value ([5]; clinical studies) was “fever, skin itching, peripheral neuropathy, dry eyes, neutrocytopenia”, the medium overall survival ([5]; patients receiving chemotherapy and PD-1/PD-L1 inhibitor regimens) was 12.9 months and the “overall survival longer than chemotherapy control group” value ([5]; versus patients receiving chemotherapy in the control group) was 3.9 months. The “TV(D0)” value (MDA-MB-468 cells; 3 mg/kg IV at D0) was 133.1 mm^3, the “T/C (%) (D21)” value (MDA-MB-468 cells; 3 mg/kg IV at D0) was 63% and the “TGI % (D21)” value (MDA-MB-468 cells; 3 mg/kg IV at D0) was 37%. The “TV(D21)” value (MDA-MB-468 cells; 3 mg/kg IV at D0) was 516.4 mm^3, the “PR (D21), partial tumor regression” value (MDA-MB-468 cells; 3 mg/kg IV at D0) was 0 and the “TV(D0)” value (MDA-MB-468 cells; 10 mg/kg IV at D0) was 139.5 mm^3. The “T/C (%) (D21)” value (MDA-MB-468 cells; 10 mg/kg IV at D0) was 28%, the “TGI % (D21)” value (MDA-MB-468 cells; 10 mg/kg IV at D0) was 72% and the “TV(D21)” value (MDA-MB-468 cells; 10 mg/kg IV at D0) was 309.5 mm^3. The “PR (D21), partial tumor regression” value (MDA-MB-468 cells; 10 mg/kg IV at D0) was 0, the “TV(D0)” value (NCI-H322 cells; 3 mg/kg IV at D0, D0 baseline) was 125.1 mm^3 and the “T/C (%) (D21)” value (NCI-H322 cells; 3 mg/kg IV at D0, D21) was 36%. For the same substance, the “TGI % (D21)” value (NCI-H322 cells; 3 mg/kg IV at D0, D21) was 64%, the “TV(D21)” value (NCI-H322 cells; 3 mg/kg IV at D0, D21) was 325.9 mm^3 and the “PR (D21), partial tumor regression” value (NCI-H322 cells; 3 mg/kg IV at D0, D21, 8 animals per group) was 0. The “TV(D0)” value (NCI-H322 cells; 10 mg/kg IV at D0, D0 baseline) was 124.1 mm^3, the “T/C (%) (D21)” value (NCI-H322 cells; 10 mg/kg IV at D0, D21) was −23% and the “TGI % (D21)” value (NCI-H322 cells; 10 mg/kg IV at D0, D21) was 123%. For the same substance, the “TV(D21)” value (NCI-H322 cells; 10 mg/kg IV at D0, D21) was 95.9 mm^3, the “PR (D21), partial tumor regression” value (NCI-H322 cells; 10 mg/kg IV at D0, D21, 8 animals per group) was 7 and the Kd (FcRn [6]) was 513 nM.

With “PADCEV (Enfortumab Vedotin, purchased from Seattle Genetics) (antibody)” the fluorescence intensity at 4° C. (Average) [7] was 84000, the fluorescence intensity at 4° C. (Median) [7] was 78900 and the Kd (FcRn [8]) was 513 nM. For the same substance, the Fluorescence intensity at 37° C. (Average), surface antibody left after internalization [9] was 33100, the Fluorescence intensity at 37° C. (Median), surface antibody left after internalization [9] was 25000 and the Kd (human FcγR I (CD64) [10]) was 12.3 nM. The Kd [11] was 16300 nM, the Kd [12] was 2770 nM and the Kd [13] was 4.87 nM.
